Columns and labels:
Type in all cases: cell-based, human
FMRP = FMRP knockdown: Western blot of FMRP after transfection with FMRP antisense or sense oligonucleotide; settings: 48 hours, AS 0.5-100 nM, S 100 nM
Method: Total proteins were extracted from mouse colonic tissues, and lysed on ice in buffer containing 10 mM HEPES [pH 7.9], 10 mM KCl, 0.1 mM EthyleneDiamineTetraacetic Acid (EDTA), 0.2 mM Ethylene Glycol-bis (β-aminoethyl ether)-N,N,N′,N′-Tetraacetic Acid (EGTA) and 0.5% Nonidet P40 supplemented with 1 mM dithiothreitol (DTT), […], […], 1 mM phenylmethylsulfonyl fluoride (PMSF), 1 mM Na3VO4, and 1 mM NaF. Lysates were clarified by centrifugation and separated on sodium dodecyl sulphate (SDS)-polyacrylamide gel electrophoresis. Blots were incubated with antibodies against: FMRP (Cell Signaling, Danvers, Mass.), followed by a secondary antibody conjugated to horseradish peroxidase (Dako, Milan, Italy). After analysis, each blot was stripped and incubated with a mouse-anti-human monoclonal β-actin antibody (Sigma-Aldrich) to ascertain equivalent loading of the lanes.
Human CRC cell lines, DLD-1 and HCT-116, were obtained from the American Type Culture Collection (ATCC, Manassas, Va.) and cultured in RPMI 1640 (DLD-1) and McCoy's 5A (HCT-116) medium, respectively. All media were supplemented with 10% fetal bovine serum, 1% penicillin/streptomycin (both from Lonza, Verviers, Belgium). The normal human colon epithelial cell line (HCEC-1ct) was obtained from EVERCYTE GmbH (Vienna, Austria) and cultured in ColoUp® medium (EVERCYTE GmbH). Cells were maintained in a 37° C., 5% CO2, fully humidified incubator. Cell line lysates were prepared and analyzed by SDS-polyacrylamide gel electrophoresis/immunoblot using methods as previously described in Example 2. For immunofluorescent staining, cell lines were fixed with 3.7% formaldehyde for 10 minutes at 4° C., permeabilized with 0.1% Triton for 10 minutes at room temperature and blocked (1% bovine serum albumin, Tween 0.1%, glycine 2%) for 1 hour at room temperature. Fixed and blocked cells were incubated with anti-FMRP monoclonal antibody (1:500, Cell Signaling, Danvers, Mass.) overnight at 4° C. After washing with PBS, secondary antibody goat anti-rabbit Alexa 488 (1:2000, A11008; Invitrogen) was applied for 1 hour at room temperature. Slides were washed with PBS, mounted using Prolong Gold® anti-fade reagent with 4′,6-diamidino-2-phenylindole (P36931; Invitrogen) and analyzed by a Leica DMI4000 B microscope with Leica application suite software (V4.6.2).
Phosphorothioate single-stranded antisense oligonucleotides complementary to human FMRP [5′-[…]-3′ (SEQ ID NO: 6)] and single-stranded sense oligonucleotides [5′-[…]-3′ (SEQ ID NO: 15)] were synthesized. CRC cell lines and HCEC-1ct cells were transfected with either FMRP antisense (AS)(final concentration 0.5-100 nM) or FMRP sense oligonucleotide (S) (final concentration100 nM) for 24 and 48 hours, using Opti-MEM medium and lipofectamine 3000 reagent (Thermo Fisher Scientific, Waltham, Mass., USA) according to the manufacturer's instructions.

HCEC-1ct cells = assay: Cell death by AnnexinV/PI flow cytometry in HCEC-1ct cells; settings: 24 hours, AS 0.5 nM and 100 nM, FIGS. 3J, 3K
Method: (§1) Cells were transfected with either FMRP antisense oligonucleotide (AS)(final concentration 0.5 nM and 100 nM) or FMRP sense oligonucleotide (S)(final concentration 100 nM). After 24 hours (FIGS. 3E, 3F, 3J and 3K) or 48 hours (FIG. 3H), cells were collected, washed two times in Annexin V (AV) buffer, stained with FITC-AnnexinV (final dilution 1:100; Immunotools, Friesoythe, Germany) according to the manufacturer's instructions, and incubated with […] of propidium iodide (PI) for 30 min at 4° C. Cells were also transfected with either FMRP sense oligonucleotide or FMRP AS oligonucleotide (final concentration 100 nM) for 36 hours and analyzed for activated caspase 3 and caspase 8. As positive and negative controls, cells were treated, respectively, with staurosporin (final concentration 1 μM, Sigma-Aldrich Milan, Italy) or Q-VD-OPh (a pan-caspase inhibitor; final concentration 1 μM) (R&D Systems, Inc, Minneapolis, Minn.). Additionally, 36 hours (FIGS. 4F and 4G) or 48 hours post-transfection (FIGS. 4D and 4E), cells were pulsed with […] bromodeoxyuridine for 60 minutes, fixed in 70% cold ethanol, and stored at −20° C. for at least 3 hours. […] Fluorescence was measured using Gallios Flow Cytometer (Beckman Coulter, Life Sciences, Pasadena, Calif., USA) and analyzed using Kaluza software (Beckman Coulter). […]

DLD-1 cell lines = assay: Cell cycle distribution by bromodeoxyuridine/PI flow cytometry; settings: DLD-1 48 hours (FIGS. 4D, 4E); HCT-116 36 hours (FIGS. 4F, 4G); before induction of cell death
Method: as §1

HCT-116 cells = assay: Cell migration (pseudo-wound closure) with Ibidi culture insert; settings: HCT-116, AS 0.5 nM, T24 and T48, vs untreated or sense, FIGS. 8A, 8B
Method: To investigate the role of FMRP in tumor cell migration and invasion, HCT-116 cells were seeded in each side of an Ibidi® culture insert and grown to confluence then left untreated (U) or transfected with sense FMRP oligonucleotide (S) (final concentration 0.5 nM) or antisense FMRP oligonucleotide (AS) (final concentration 0.5 nM). Additionally, HCT-116 cells were seeded in Transwell® inserts precoated with Matrigel®, and either left untreated (U) or transfected with sense oligonucleotide (S) (final concentration 100 nM) or antisense FMRP oligonucleotide (AS) (final concentration 0.5 nM) for 48 hours.
To determine whether MCC regulation of the E-cadherin/β-catenin complex is also required for the observed inhibition of colorectal cell line migration and invasion (e.g., FIGS. 8A and 8B), HCT-116 cells were seeded in each side of an Ibidi® culture insert and grown to confluence then left untreated (U) or transfected with sense oligonucleotide (S) (final concentration 0.5 nM) or antisense oligonucleotide (AS) (final concentration 0.5 nM) and/or siRNA Ctrl or siRNA MCC.

5′-TCCACCACCAGCTCCTCCAT-3′ (all phosphorothioate, sugars by position and methylation of C not given here) [FMRP antisense oligonucleotide, Phosphorothioate single-stranded antisense oligonucleotides complementary to human FMRP]
FMRP expression (FMRP; DLD-1 cells, FIG. 3D): significantly inhibited FMRP expression
FMRP expression (FMRP; HCEC-1ct cells, FIG. 3I): significantly inhibited FMRP expression
FMRP expression (FMRP; HCT-116 cells, FIG. 3G): significantly inhibited FMRP expression
number of AnnexinV+ or AnnexinV+ PI+ cells (HCEC-1ct cells): neither HCT-116 cells nor HCRC-1ct cells treated with FMRP antisense oligonucleotide exhibited an increased number
relative percentage of cells in G2/M, S, or G0/G1 cell cycle phases (DLD-1 cell lines): did not affect
percentage of cell-covered area (pseudo-wound) (HCT-116 cells): significantly reduced the percentage of cells covering a pseudo-“wound”

— patent US20220145303A1, “FRAGILE X MENTAL RETARDATION PROTEIN INTERFERING OLIGONUCLEOTIDES AND METHODS OF USING SAME” (Nogra Pharma Limited, priority 2019, published 2022)
